This passage reports mutagenic call results from PubChem BioAssay AID1259407 (Chemical Carcinogenesis Research Information System (CCRIS), 2018).

The source made the active and inactive calls. How the calls were made is not given here.

The subject of this data set is CCRIS mutagenicity, Ames/micronucleus/aberration tests. Kind of data set: CCRIS mutagenicity studies.
The mark [1] stands for this setting: Test System: AMES SALMONELLA TYPHIMURIUM, Strain/Indicator: TA98, Metabolic Activation: NONE, Method: STANDARD PLATE.
The mark [2] stands for this setting: Test System: AMES SALMONELLA TYPHIMURIUM, Strain/Indicator: TA100, Metabolic Activation: NONE, Method: STANDARD PLATE.

For the molecule `CCNC(=O)NC(=O)/C(C#N)=N/OC`, the mutagenic call (End Point: In vitro chromosomal aberrations, Test System: Human lymphocytes, Metabolic Activation: None) is “active; positive (structural changes)”; the mutagenic call (End Point: In vitro chromosomal aberrations, Test System: Human lymphocytes, Metabolic Activation: S-9 (DPR evaluator did not provide additional details)) is “active; positive (structural changes)”; the mutagenic call (End Point: In vivo micronucleus, Test System: Bone marrow polychromatic erythrocytes, Species: Mouse, Strain/Sex: Female, Route: Oral (gavage)) is “inactive; negative, significant toxicity (m and f) and early deaths (f only) as high dose”; the mutagenic call (End Point: In vivo micronucleus, Test System: Bone marrow polychromatic erythrocytes, Species: Mouse, Strain/Sex: Male, Route: Oral (gavage)) was “inactive; negative, significant toxicity (m and f) and early deaths (f only) as high dose”; the mutagenic call (Test System: Ames Salmonella typhimurium, Strain/Indicator: TA97, Metabolic Activation: None, Method: Plate incorporation) was “inactive; negative, testing into the cytotoxic range”; the mutagenic call (Test System: Ames Salmonella typhimurium, Strain/Indicator: TA97, Metabolic Activation: S-9 (DPR evaluator did not provide additional information), Method: Plate incorporation) was “inactive; negative, testing into the cytotoxic range”. Further, the mutagenic call (Test System: Ames Salmonella typhimurium, Strain/Indicator: TA98, Metabolic Activation: None, Method: Plate incorporation) is “inactive; negative, testing into the cytotoxic range”; the mutagenic call (Test System: Ames Salmonella typhimurium, Strain/Indicator: TA98, Metabolic Activation: S-9 (DPR evaluator did not provide additional information), Method: Plate incorporation) was “inactive; negative, testing into the cytotoxic range”; the mutagenic call (Test System: Ames Salmonella typhimurium, Strain/Indicator: TA100, Metabolic Activation: None, Method: Plate incorporation) is “inactive; negative, testing into the cytotoxic range”; the mutagenic call (Test System: Ames Salmonella typhimurium, Strain/Indicator: TA100, Metabolic Activation: S-9 (DPR evaluator did not provide additional information), Method: Plate incorporation) was “inactive; negative, testing into the cytotoxic range”; the mutagenic call (Test System: Ames Salmonella typhimurium, Strain/Indicator: TA1535, Metabolic Activation: None, Method: Plate incorporation) is “inactive; negative, testing into the cytotoxic range”; the mutagenic call (Test System: Ames Salmonella typhimurium, Strain/Indicator: TA1535, Metabolic Activation: S-9 (DPR evaluator did not provide additional information), Method: Plate incorporation) is “inactive; negative, testing into the cytotoxic range”. Also, the mutagenic call runs as follows: (Test System: Chinese hamster ovary cells, Strain/Indicator: CHO Cells (HPRT) /6-Thioguanine, Metabolic Activation: None, Method: Preincubation) “inactive; negative”; (Test System: Chinese hamster ovary cells, Strain/Indicator: CHO Cells (HPRT)/6-Thioguanine, Metabolic Activation: S-9 (DPR evaluator did not provide additional information), Method: Preincubation) “inactive; negative”; (Test System: Male rat spermatocytes, Strain/Indicator: Thymidine incorporation, Metabolic Activation: None, Method: Autoradiography) “inactive; negative, mortality and clinical signs of toxicity observed”; (Test System: UDS Male rat hepatocytes, Strain/Indicator: Thymidine incorporation, Metabolic Activation: None, Method: Autoradiography) “inactive; negative, mortality and clinical signs of toxicity observed”; (Test System: UDS Rat hepatocytes, Strain/Indicator: Thymidine incorporation, Metabolic Activation: None, Method: Autoradiography) “active; positive, statistically significant but no linear dose response”.
In the case of `Oc1cccc(O)c1O`, the mutagenic call is “active; positive; active at higher levels at all ph values” (End Point: IN VITRO CHROMOSOMAL ABERRATIONS, Test System: V79 CELLS, Metabolic Activation: NONE); “active; positive” (Test System: AMES SALMONELLA TYPHIMURIUM, Strain/Indicator: TA97, Metabolic Activation: NONE, Method: PREINCUBATION); “active; positive” (Test System: AMES SALMONELLA TYPHIMURIUM, Strain/Indicator: TA97, Metabolic Activation: RAT, LIVER, S-9, PHENOBARBITAL, Method: PREINCUBATION); “inactive; negative” (Test System: AMES SALMONELLA TYPHIMURIUM, Strain/Indicator: TA98, Metabolic Activation: NONE); “inactive; negative” (Test System: AMES SALMONELLA TYPHIMURIUM, Strain/Indicator: TA98, Metabolic Activation: NONE, Method: PREINCUBATION); “inactive; negative” under setting [1]. Besides, the mutagenic call by setting is: (Test System: AMES SALMONELLA TYPHIMURIUM, Strain/Indicator: TA98, Metabolic Activation: RAT, LIVER, S-9, AROCLOR 1254, Method: PREINCUBATION) “inactive; negative”; (Test System: AMES SALMONELLA TYPHIMURIUM, Strain/Indicator: TA98, Metabolic Activation: RAT, LIVER, S-9, PHENOBARBITAL, Method: PREINCUBATION) “active; positive”; (Test System: AMES SALMONELLA TYPHIMURIUM, Strain/Indicator: TA98, Metabolic Activation: S-9) “inactive; negative”; (Test System: AMES SALMONELLA TYPHIMURIUM, Strain/Indicator: TA98, Metabolic Activation: S-9, Method: STANDARD PLATE) “active; positive”; (Test System: AMES SALMONELLA TYPHIMURIUM, Strain/Indicator: TA100, Metabolic Activation: NONE, Method: PREINCUBATION) “active; positive”; under setting [2], “inactive; negative”. Further, the mutagenic call (Test System: AMES SALMONELLA TYPHIMURIUM, Strain/Indicator: TA100, Metabolic Activation: RAT, LIVER, S-9, PHENOBARBITAL, Method: PREINCUBATION) was “active; positive”; the mutagenic call (Test System: AMES SALMONELLA TYPHIMURIUM, Strain/Indicator: TA100, Metabolic Activation: S-9, Method: STANDARD PLATE) was “active; positive”; the mutagenic call (Test System: AMES SALMONELLA TYPHIMURIUM, Strain/Indicator: TA102, Metabolic Activation: NONE, Method: STANDARD PLATE) is “active; positive”; the mutagenic call (Test System: AMES SALMONELLA TYPHIMURIUM, Strain/Indicator: TA102, Metabolic Activation: RAT, LIVER, S-9, AROCLOR 1254, Method: PREINCUBATION) is “inactive; negative”; the mutagenic call (Test System: AMES SALMONELLA TYPHIMURIUM, Strain/Indicator: TA1535, Metabolic Activation: NONE, Method: PREINCUBATION) is “inactive; negative”; the mutagenic call (Test System: AMES SALMONELLA TYPHIMURIUM, Strain/Indicator: TA1535, Metabolic Activation: RAT, LIVER, S-9, AROCLOR 1254, Method: PREINCUBATION) is “inactive; negative”. For the same molecule, the mutagenic call by setting is: (Test System: AMES SALMONELLA TYPHIMURIUM, Strain/Indicator: TA2638, Metabolic Activation: NONE, Method: STANDARD PLATE) “active; positive”; (Test System: E. COLI, Strain/Indicator: WP2 (PKM101), Metabolic Activation: NONE, Method: STANDARD PLATE) “active; positive”; (Test System: E. COLI, Strain/Indicator: WP2 UVRA (PKM101), Metabolic Activation: NONE, Method: STANDARD PLATE) “active; positive”.
In the case of `CCN(CC)c1ccc2c(-c3ccc(S(=O)(=O)O)cc3S(=O)(=O)[O-])c3ccc(=[N+](CC)CC)cc-3oc2c1`, the mutagenic call runs as follows: (End Point: IN VIVO MICRONUCLEUS, Test System: BONE MARROW POLYCHROMATIC ERYTHROCYTES, Species: MOUSE, Strain/Sex: DDY/MALE, Route: IP) “inactive; negative”; (Test System: AMES SALMONELLA TYPHIMURIUM, Strain/Indicator: TA98, Metabolic Activation: HAMSTER, LIVER, S-9, AROCLOR 1254 (10%), Method: STANDARD PLATE) “active; positive”; under setting [1], “inactive; negative”; (Test System: AMES SALMONELLA TYPHIMURIUM, Strain/Indicator: TA98, Metabolic Activation: RAT, LIVER, S-9, AROCLOR 1254 (10%), Method: STANDARD PLATE) “active; positive”; (Test System: AMES SALMONELLA TYPHIMURIUM, Strain/Indicator: TA100, Metabolic Activation: HAMSTER, LIVER, S-9, AROCLOR 1254 (10%), Method: STANDARD PLATE) “inactive; negative”; under setting [2], “inactive; negative”. In addition, the mutagenic call was “inactive; negative” (Test System: AMES SALMONELLA TYPHIMURIUM, Strain/Indicator: TA100, Metabolic Activation: RAT, LIVER, S-9, AROCLOR 1254 (10%), Method: STANDARD PLATE); “inactive; negative” (Test System: AMES SALMONELLA TYPHIMURIUM, Strain/Indicator: TA1538, Metabolic Activation: NONE, Method: STANDARD PLATE); “inactive; negative” (Test System: AMES SALMONELLA TYPHIMURIUM, Strain/Indicator: TA1538, Metabolic Activation: RAT, LIVER, S-9, AROCLOR 1254, Method: STANDARD PLATE); “inactive; negative” (Test System: MOUSE LYMPHOMA, Strain/Indicator: L5178Y (TK+/TK-), Metabolic Activation: NONE, Method: SUSPENSION/PLATE); “active; positive” (Test System: MOUSE LYMPHOMA, Strain/Indicator: L5178Y (TK+/TK-), Metabolic Activation: RAT, LIVER, S-9, AROCLOR 1254, Method: SUSPENSION/PLATE).
